Like-named read-outs stand apart in the source and are kept apart here.
Columns and labels:
[1] = target: cIAP-1 protein containing both BIR2 and BIR3 domains (Homo sapiens, UniProt Q13490); assay: Fluorescence-polarization based binding assay, cIAP-1 BIR2-BIR3
[2] = test system: MDA-MB-231 breast cancer cell line; assay: Apoptosis assay (Annexin V/P.I.), MDA-MB-231; type: cell-based, human; details: 1 nM for 12 h
Protocol: (§1) Analysis of apoptosis was performed using an apoptosis detection kit (BioVision Research Products, Mountain View, Calif.) according to the manufacturer's protocol. Briefly, cells were treated with Smac mimetics for 12 hours, harvested and washed with ice-cold PBS. Cells were stained with Annexin V-FITC and Propidium iodide (P.I.) for 15 minutes at room temperature in the dark and immediately analyzed by FACS calibur flow cytometer (Becton Dickinson, Erembodegem, Belgium). Cells that were stained Annexin V (+) and P.I. (−) were considered early-stage apoptotic cells. Cells that were stained annexin V (+) and P.I. (+) were considered late-stage apoptotic cells and cells that were stained annexin V (−) and P.I. (+) were considered necrotic cells (FIG. 6).
(§2) Treatment with SM-164 at 1 nM for 12 h induced 32%, 33%, and 37% of the MDA-MB-231, SK-OV-3 and MALME-3M cells to undergo apoptosis, respectively (FIGS. 12-14).

[3] = test system: MAMEL-3M melanoma cell line; assay: Cell growth inhibition, WST-8 assay, MAMEL-3M; type: cell-based; details: 96 h, 4 days
Protocol: (§3) Cells were seeded in 96-well flat bottom cell culture plates at a density of 3000 cells/well with a tested compound and incubated at 37° C. in an atmosphere of 95% air and 5% CO2 for 4 days. The rate of cell growth inhibition after treatment with different concentrations of the compound was determined using a WST-8 kit (2-(2-methoxy-4-nitrophenyl)-3-(4-nitrophenyl)-5-(2, 4 disulfophenyl)-2H-tetrazolium monosodium salt; Dojindo Molecular Technologies, Inc., Gaithersburg, Md.). WST-8 was added at a final concentration of 10% to each well, and then the plates were incubated at 37° C. for 2-3 hrs. The absorbance of the samples was measured at 450 nm using a ULTRA Tecan Reader (Molecular Device).

SK-OV-3 = assay: Cell growth inhibition, WST assay, SK-OV-3; type: cell-based; details: Homo sapiens
Protocol: as §3

[4] = test system: SK-OV-3 ovarian cancer cell line; assay: Apoptosis assay (Annexin V/P.I.), SK-OV-3; type: cell-based; details: 1 nM for 12 h
Protocol: as §1, §2

[5] = test system: MALME-3M melanoma cell line; assay: Apoptosis assay (Annexin V/P.I.), MALME-3M; type: cell-based; details: 1 nM for 12 h
Protocol: as §1, §2

[6] = test system: MDA-MB-231, MALME-3M and SK-OV-3 cell lines; assay: Cell death induction with TNFα or TRAIL neutralizing antibody; type: cell-based
MAMLE-3M cells = assay: Trypan blue cell viability assay, MAMLE-3M; type: cell-based; details: 100 nM, 2 days
Protocol: (§4) 0.3×10^6 cells were seeded in 6 well plates and incubated at 37° C. in an atmosphere of 95% air and 5% CO2 without or with tested compound for 2 days. A 1:1 dilution of 0.4% Trypan blue (Invitrogen Corporation) was used to determine cell viability.

OVCAR-4 cells = assay: Trypan blue cell viability assay, OVCAR-4; type: cell-based; details: 100 nM, 2 days
Protocol: as §4

[7] = test system: sensitive cancer cell lines (MDA-MB-231, MALME-3M, SK-OV-3); assay: XIAP knockdown by siRNA with exogenous TNFα, cell death; type: cell-based
Protocol: To investigate the role of XIAP in apoptosis induction by Smac mimetics, XIAP was knocked down in sensitive cancer cell lines. Because XIAP knockdown attenuated the production and secretion of TNFα (FIG. 34) (Gaither et al., Cancer Res. 67:11493 (2007)), exogenous TNFα was added in these XIAP knockdown experiments. […] For example, while SM-122 at 100 nM in combination with TNFα killed 25% of the MDA-MB-231 cells when control siRNA was used, the same combination killed 75% of the cells when XIAP was knocked down.
This is consistent with binding and functional data that indicates SM-164 binds to XIAP with a high affinity and is a potent antagonist of XIAP.

[8] = test system: MDA-MB-231 human breast cancer cell line; assay: Cell growth inhibition, WST-8 assay, MDA-MB-231; type: cell-based
Protocol: as §3, with “The” for “Cells were seeded in 96-well flat bottom cell culture plates at a density of 3000 cells/well with a tested compound and incubated at 37° C. in an atmosphere of 95% air and 5% CO2 for 4 days. The”

[9] = target: T1, human XIAP protein (residues 120-356) (Homo sapiens, UniProt P98170); assay: Fluorescence-polarization-based binding assay to XIAP protein (Smac2-F tracer)
T1 construct: human XIAP protein (residues 120-356) (10 nM)
Protocol: The polarization values were measured after 2 hours incubation, using the Ultra plate reader. […] Curve fitting is performed using GraphPad Prism® software.

cIAP-1 protein containing both BIR2 and BIR3 domains, sequence (Q13490 174-352 limits assumed): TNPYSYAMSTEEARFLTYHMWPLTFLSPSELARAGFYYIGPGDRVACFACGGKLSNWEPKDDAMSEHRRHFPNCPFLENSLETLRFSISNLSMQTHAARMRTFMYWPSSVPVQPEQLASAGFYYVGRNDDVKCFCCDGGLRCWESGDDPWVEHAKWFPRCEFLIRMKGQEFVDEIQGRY
T1 sequence (P98170 120-356): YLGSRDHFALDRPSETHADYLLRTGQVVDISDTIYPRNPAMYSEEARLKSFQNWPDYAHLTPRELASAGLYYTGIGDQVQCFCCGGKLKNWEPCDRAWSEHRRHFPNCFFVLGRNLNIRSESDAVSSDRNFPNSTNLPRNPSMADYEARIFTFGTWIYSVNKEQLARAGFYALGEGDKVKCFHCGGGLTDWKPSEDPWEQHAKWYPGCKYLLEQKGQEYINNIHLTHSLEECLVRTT

**Q.** Which results are given for `CN[C@@H](C)C(=O)N[C@H]1CCCC[C@H]2CC[C@@H](C(=O)N[C@@H](c3ccccc3)c3cn(CCCCc4ccc(CCCCn5cc([C@@H](NC(=O)[C@@H]6CC[C@@H]7CCCC[C@H](NC(=O)[C@H](C)NC)C(=O)N76)c6ccccc6)nn5)cc4)nn3)N2C1=O` [SH-164]?
**A.** Ki [1]: 0.31 nM; more potent than SM-122 to cIAP-1 [1]: 9 times; cells undergoing apoptosis [2]: 32%; IC50 [3]: 1.4 nM; IC50 (SK-OV-3): < 10 nM; cells undergoing apoptosis [4]: 33%; cells undergoing apoptosis [5]: 37%; cell death induction in presence of neutralizing antibodies [6]: effectively blocked by a TNFα, but not by a TRAIL, neutralizing antibody; cell death (MAMLE-3M cells): at least 70%; cell death (OVCAR-4 cells): at least 70%; cell death induction ([7]; 3 and 10 nM, with or without TNFα): effectively induced cell death; sensitization by knockdown of XIAP ([7]; presence of exogenous TNFα): only modestly sensitized; IC50 ([8]; MDA-MB-231, 96 h, 4 days, WST-8, read-out: IC50 cell growth inhibition): 1.4 nM; IC50 ([8]; MDA-MB-231, read-out: IC50 values (nM) In WST-assay (MDA-MB-231)): < 10 nM; binding affinity better than the monovalent Smac mimetic SH-122 [9]: more than 500 fold; more potent than the natural Smac peptide AVPI [9]: > 5000 times
